The term IC50 denotes the concentration at which inhibition is half-maximal. The Kd is the equilibrium constant for the complex coming apart.

For test [1], the target named is T1, ALDH1B1 (Homo sapiens, UniProt P30837).
T1 construct: purified ALDH1B1 protein, wild type and alanine mutants
T1 sequence (P30837 18-517): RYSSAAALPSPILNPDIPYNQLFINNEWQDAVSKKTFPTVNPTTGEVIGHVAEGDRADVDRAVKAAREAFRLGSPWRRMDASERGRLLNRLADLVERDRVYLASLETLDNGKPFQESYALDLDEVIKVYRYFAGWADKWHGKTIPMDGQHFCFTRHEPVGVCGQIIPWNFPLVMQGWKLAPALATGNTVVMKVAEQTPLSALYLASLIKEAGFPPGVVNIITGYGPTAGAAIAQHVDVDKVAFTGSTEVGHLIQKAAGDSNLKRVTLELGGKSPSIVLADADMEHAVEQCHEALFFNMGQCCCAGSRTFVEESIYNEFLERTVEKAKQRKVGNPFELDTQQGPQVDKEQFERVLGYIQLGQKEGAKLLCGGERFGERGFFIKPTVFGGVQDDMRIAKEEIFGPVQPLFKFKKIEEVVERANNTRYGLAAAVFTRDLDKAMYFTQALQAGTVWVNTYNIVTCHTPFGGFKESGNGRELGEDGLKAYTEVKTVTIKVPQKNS
The test is described as follows: in vitro enzyme activity assay. The test is classed as biochemical.

Test [2] has as its target T1, ALDH1B1. Nature of the test: surface plasmon resonance. Type of test: binding.
Test [3] addresses T2, ENPP1 (Homo sapiens, UniProt P22413).
T2 construct: purified ENPP1 protein for PTS, enzyme assay and SPR
T2 sequence (P22413 1-925): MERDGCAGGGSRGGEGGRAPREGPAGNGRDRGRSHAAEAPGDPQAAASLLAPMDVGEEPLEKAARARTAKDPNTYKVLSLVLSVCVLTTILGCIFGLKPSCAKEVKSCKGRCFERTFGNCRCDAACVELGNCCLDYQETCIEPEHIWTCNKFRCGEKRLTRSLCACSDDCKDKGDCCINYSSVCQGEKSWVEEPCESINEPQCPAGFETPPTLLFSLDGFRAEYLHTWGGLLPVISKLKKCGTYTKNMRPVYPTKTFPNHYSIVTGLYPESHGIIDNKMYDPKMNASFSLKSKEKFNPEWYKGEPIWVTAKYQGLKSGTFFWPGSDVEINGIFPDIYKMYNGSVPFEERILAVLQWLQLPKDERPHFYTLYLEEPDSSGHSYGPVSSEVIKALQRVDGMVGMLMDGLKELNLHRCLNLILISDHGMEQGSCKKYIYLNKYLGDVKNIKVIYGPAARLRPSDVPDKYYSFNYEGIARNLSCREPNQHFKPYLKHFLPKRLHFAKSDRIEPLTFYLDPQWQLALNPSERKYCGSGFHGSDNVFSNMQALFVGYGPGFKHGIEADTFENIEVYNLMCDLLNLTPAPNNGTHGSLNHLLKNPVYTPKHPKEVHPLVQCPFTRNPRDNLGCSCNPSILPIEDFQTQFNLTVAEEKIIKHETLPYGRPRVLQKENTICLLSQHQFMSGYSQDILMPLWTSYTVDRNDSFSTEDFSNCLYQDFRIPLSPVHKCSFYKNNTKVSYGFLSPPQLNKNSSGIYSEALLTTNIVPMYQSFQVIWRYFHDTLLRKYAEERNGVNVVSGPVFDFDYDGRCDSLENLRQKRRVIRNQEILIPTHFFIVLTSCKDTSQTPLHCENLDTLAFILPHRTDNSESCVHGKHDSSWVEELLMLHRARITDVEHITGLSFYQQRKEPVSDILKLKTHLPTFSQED
The test is described as follows: surface plasmon resonance. The test is classed as binding.

The target of test [4] is T2, ENPP1. The test is described as follows: in vitro enzyme activity assay. The test is classed as biochemical.

For the molecule `Fc1cc(F)c2c(c1)[C@H]1C=CC[C@H]1[C@@H](c1cccnc1)N2` [B2], the midpoint of inhibition against ALDH1B1 [1], the IC50, lay at 5.57 µM. The Kd on ALDH1B1 [2] amounted to 1.21 µM.

In turn, `COc1cccc(F)c1-c1nc(C(=O)Nc2ccccc2N2CCC(NS(N)(=O)=O)CC2)cn2ccnc12` [A2] came in with a Kd at ENPP1 [3] of 1.03 µM. In addition, the IC50 at ENPP1 [4] is 2.28 µM.

On ALDH1B1 [1], `Fc1cc(F)c2c(c1)[C@@H]1C=CC[C@@H]1[C@H](c1cccnc1)N2` [B1] displayed an IC50 of 0.02 µM. Also, the Kd at ALDH1B1 [2] was determined as 0.0152 µM.
